# Assay results as given in article PMC5087659, “The role of ADP-ribosylation in regulating DNA interstrand crosslink repair” (Journal of Cell Science, 2016).
# Molecular target: T1, O. sativa APL (Q10MW4) macrodomain (Oryza sativa, UniProt B8ALM5)
# T1 construct: gene OsI_11122
# Test: X-ray crystal structure of the complex (co-crystallisation)
# Details: 2 mM ADPr added to protein; crystals in 0.1 M SPG buffer pH 4, 25% PEG 1500, 20 °C; macrodomain binding pocket
# T1 sequence (B8ALM5 entry or part of it, one chain of several): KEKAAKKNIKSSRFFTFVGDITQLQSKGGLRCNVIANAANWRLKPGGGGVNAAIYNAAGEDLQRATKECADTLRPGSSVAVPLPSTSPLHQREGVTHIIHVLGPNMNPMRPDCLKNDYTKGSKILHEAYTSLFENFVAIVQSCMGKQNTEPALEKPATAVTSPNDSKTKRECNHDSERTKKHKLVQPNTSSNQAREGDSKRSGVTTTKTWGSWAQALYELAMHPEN
compound,measurement,value
Nc1ncnc2c1ncn2[C@@H]1O[C@H](COP(=O)(O)OP(=O)(O)OC[C@H]2OC(O)[C@H](O)[C@@H]2O)[C@@H](O)[C@H]1O (stereo partly shown) [ADP-ribose],X-ray crystal structure of the complex (co-crystallisation),We were able to obtain the O. sativa macrodomain in a complex with ADP-ribose
